# According to US9278090B2, “Methods of preventing the development of mucositis and related disorders” (The United States of America, as represented by the …, priority 2012, dated 2016):
# System: human primary NOK
# Assay: Replicative senescence / cumulative population doublings
# Type: cell-based
# Conditions: in the presence of rapamycin; estimated
# Description: NOK were plated in collagen coated LabTek chamber slides and treated with vehicle or 20 nM rapamycin for 3 days. Cells were then γ-irradiated or not, and further treated with vehicle or rapamycin for 24 h. For TUNEL assay cells were processed for staining immediately, for SA-β-gal cells were passed and assessed 4 days after plating. Apoptosis was detected using the CLICK-IT™ TUNEL ALEXA FLUOR™ 594 Imaging Assay (Life Technologies, Carlsbad, Calif.) and SA-β-gal activity was measured using the SA-β-gal kit (Cell Signaling Technology, Danvers, Mass.) according to the manufacturer's instructions. The proportion of positive cells was determined by fluorescence or transmission microscopy and quantified using ImageJ. Eight different fields containing approximately 60 cells each were quantified per condition. For the calculation of population doublings cells were cultured as described and treated with vehicle or 20 nM rapamycin. Population doublings were calculated every passage using the formula x=[log 10(NH/N1)]/log 10(2)] (Cristofalo et al., PNAS, 95, 10614-10619 (1998)), where N1 is the inoculum cell number and NH the cell harvest number. To yield the cumulated doubling doublings, the population doublings for each passage was calculated and then added to the population doubling levels of the previous passages.
structure (smiles),measurement,value
CO[C@H]1C[C@@H]2CC[C@@H](C)[C@@](O)(O2)C(=O)C(=O)N2CCCC[C@H]2C(=O)O[C@H]([C@H](C)C[C@@H]2CC[C@@H](O)[C@H](OC)C2)CC(=O)[C@H](C)/C=C(\C)[C@@H](O)[C@@H](OC)C(=O)[C@H](C)C[C@H](C)/C=C/C=C/C=C/1C [rapamycin],cells a single cell will give rise to before senescence,around 10^17 cells
